Patent publication US4476128A, “2-Substituted thiazolyl-piperazine compounds, process for preparation thereof and utilizations thereof _” (Mitsuitoatsu Chemicals, Inc., priority 1980, dated 1984)

Columns and labels:
Sarcoma 180 [1] = experiment: Test of Antitumor Effect to Sarcoma 180 by Oral Administration; assay type: in vivo, ICR female mice
Protocol: To the control group, a physiological saline was similarly administered. The dose of the compound was 100 mg per Kg of the body weight. The diameter D (mm) of the tumor was measured, and the average value and the number N of the living mice were determined to obtain results shown in Table 4.

Sarcoma 180 [2] = experiment: Test of Antitumor Effect to Sarcoma 180 by Subcutaneous Administration; assay type: in vivo, ICR female mice; settings: 20 mg/Kg subcutaneous; for N: number of living mice, 0 weeks / N: number of living mice, 2 weeks / N: number of living mice, 4 weeks / N: number of living mice, 6 weeks / N: number of living mice, 8 weeks / N: number of living mice, 10 weeks: group of 6
Protocol: To the control group, a physiological saline was similarly administered. […] The diameter D (mm) of the tumor was measured, and the average value and the number N of the living mice were determined to obtain results shown in Table 4.

[3] = system: delayed hypersensitivity induced by picryl chloride; experiment: Test of Reinforcement of Delayed Hypersensitivity (picryl chloride, mouse ear thickness); assay type: in vivo, ICR male mice; settings: 50 mg/Kg oral, simultaneously with sensitization; 24 hours after challenge; * P<0.05, ** P<0.01
From the text: Various test systems using animals have been proposed for determining the immunopotentiative action. Results of the test of reinforcement of the delayed hypersensitivity, which is a typical test among these tests, will now be described.
This system was used for the test of reinforcement of the delayed hypersensitivity.
One group of eight ICR male mice, each having a body weight of about 30 g, was used for the test.
Sensitization was effected by coating a 7% solution of picryl chloride in a 4/1 mixture of olive oil and acetone on the shaved abdomen of the mouse.
Simultaneously with sensitization, a solution or suspension of the compound of the present invention in a 0.2% solution of carboxymethyl cellulose in a physiological saline was orally administered to the mouse at a dose of 50 mg per Kg of the body weight. To the control group, a 0.2% carboxymethyl cellulose solution in a physiological saline was similarly administered.
The delayed hypersensitivity was challenged 7 days after sensitization by gripping the ear of the mouse by a forceps wrapped with a felt impregnated with a 1% solution of picryl chloride in olive oil and coating the ear with the solution. The thickness of the ear was measured before challenging and 24 hours after challenging and the ratio of increase of the thickness (average value of both the ears in eight mice±standard deviation) was obtained as shown in Table 1.
For comparison, the test was similarly carried out by using Levamisole hydrochloride, and the obtained results are shown in Table 1. F.t tests were carried out. The group in which the test result was significant at a level of P<0.05 was marked by *, and the group in which the test result was significant at a level of P<0.01 was marked by **.

[4] = system: adjuvant arthritis caused by Mycobacterium tuberculosis adjuvant; experiment: Adjuvant Arthritis Test; assay type: in vivo, SD male rats; settings: 5 mg/Kg subcutaneous, 9 times, left hind leg, * P<0.05, ** P<0.01
Protocol: The adjuvant arthritis in rats caused by injection of a Mycobacterium tuberculosis adjuvant is often utilized for a model test of chronic rheumatoid arthritis in men.
The mechanism of manifestation of this disease has not completely been elucidated, but it is known that the cellular immunity takes an important role. The immunopotentiative action of the compound of the present invention was tested according to this known adjuvant arthritis test.
A group of ten 9-weeks-old SD male rats were used for the test. In 0.1 ml of fluid paraffin, 0.4 mg of dry dead cells of Mycobacterium tuberculosis were suspended, and the suspension was injected under the heel skin of the right hind leg. The compound of the present invention was subcutaneously administered 9 times as a whole before and after injection of the adjuvant. The test compound was dissolved in a physiological saline and administered at a dose of 5 mg per Kg of the body weight. The swelling volume of the left hind leg as measured during the period of from the day of injection to the day of completion of the test, and the swelling ratio was calculated. For comparison, the test was similarly conducted by using Levamisole hydrochloride. F.t tests were carried out on the obtained test results. The group in which the test result was significant at a level of P<0.05 was marked by *, and the group in which the test result was significant at a level of P<0.01 was marked by **.

SMILES	N: number of living mice, 0 weeks (Sarcoma 180 [2])	D: average diameter (mm) of tumor, 2 weeks (Sarcoma 180 [2]) [mm]	N: number of living mice, 2 weeks (Sarcoma 180 [2])	D: average diameter (mm) of tumor, 4 weeks (Sarcoma 180 [2]) [mm]	N: number of living mice, 4 weeks (Sarcoma 180 [2])	D: average diameter (mm) of tumor, 6 weeks (Sarcoma 180 [2]) [mm]	N: number of living mice, 6 weeks (Sarcoma 180 [2])	D: average diameter (mm) of tumor, 8 weeks (Sarcoma 180 [2]) [mm]	N: number of living mice, 8 weeks (Sarcoma 180 [2])	D: average diameter (mm) of tumor, 10 weeks (Sarcoma 180 [2]) [mm]	N: number of living mice, 10 weeks (Sarcoma 180 [2])	other results
CCN(CC)C(=O)N1CCN(c2nc(-c3ccccc3)cs2)CC1 [drawing 14]												D: average diameter (mm) of tumor, 2 weeks (Sarcoma 180 [1]; 100 mg/Kg oral once a day, 10 days, 2 weeks): 5.6 mm; D: average diameter (mm) of tumor, 4 weeks (Sarcoma 180 [1]; 100 mg/Kg oral once a day, 10 days, 4 weeks): 3.5 mm; D: average diameter (mm) of tumor, 6 weeks (Sarcoma 180 [1]; 100 mg/Kg oral once a day, 10 days, 6 weeks): 4.6 mm; D: average diameter (mm) of tumor, 8 weeks (Sarcoma 180 [1]; 100 mg/Kg oral once a day, 10 days, 8 weeks): 0 mm; D: average diameter (mm) of tumor, 10 weeks (Sarcoma 180 [1]; 100 mg/Kg oral once a day, 10 days, 10 weeks): 0 mm; N: number of living mice, 0 weeks (Sarcoma 180 [1]; 100 mg/Kg oral, 0 weeks, group of 6): 6; N: number of living mice, 2 weeks (Sarcoma 180 [1]; 100 mg/Kg oral, 2 weeks, group of 6): 6; N: number of living mice, 4 weeks (Sarcoma 180 [1]; 100 mg/Kg oral, 4 weeks, group of 6): 6; N: number of living mice, 6 weeks (Sarcoma 180 [1]; 100 mg/Kg oral, 6 weeks, group of 6): 6; N: number of living mice, 8 weeks (Sarcoma 180 [1]; 100 mg/Kg oral, 8 weeks, group of 6): 6; N: number of living mice, 10 weeks (Sarcoma 180 [1]; 100 mg/Kg oral, 10 weeks, group of 6): 6
CCN(CC)C(=O)N1CCN(c2nccs2)CC1 [drawing 17]	6	4.9	6	6.7	6	9.6	6	5.6	6	0	6	
CCN(CC)C(=O)N1CCN(c2nccs2)CC1 [drawing 9]												Ratio of Increase of Ear Thickness (average value ± standard variation, %) [3]: 36.6 ± 3.0%
CCN(CC)C(=O)N1CCN(c2nc(-c3ccccc3)cs2)CC1 [drawing 16]	6	2.6	6	3.5	6	6.5	6	0.6	6	0	6	
CCN(CC)C(=O)N1CCN(c2nc(-c3ccccc3)cs2)CC1 [drawing 10]												Swelling Ratio (average value ± standard variation, %), 15 days ([4]; 15 days): 43.5 ± 13.9%; Swelling Ratio (average value ± standard variation, %), 18 days ([4]; 18 days): 41.5 ± 12.6%; Swelling Ratio (average value ± standard variation, %), 21 days ([4]; 21 days): 52.9 ± 11.2%
